In ChEMBL document CHEMBL1201862, “PubChem BioAssay data set” (2004):
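48-hour exposure; five concentrations; linearly interpolated endpoints. GI50 is the concentration that inhibits growth by half.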 Calls of active or inactive are those of the source. Rule as the data show it: active = GI50 up to about 1.1 µM and inactive = higher.

System: HCC 2998
Test: NCI-60 cell line screen, 48 h

Question: Which GI50 does the source give for `c1ccc(-c2ccnc3c2ccc2c(-c4ccccc4)ccnc23)cc1` here?
Answer: 3.53 µM (inactive)
